Patent US20200121704A1, “METHODS FOR TREATING HYPERTENSION AND ARTERIAL STIFFNESS” (THE REGENTS OF THE UNIVERSITY OF COLORADO, A BODY CORPORATE, priority 2017, published 2020)

Key:
Format in all cases: in vivo, human
[1] = system: healthy middle-aged and older adults; assay: Carotid-femoral pulse wave velocity (large elastic artery stiffness)
Procedure: Carotid-femoral PWV, the gold-standard assessment of elastic artery stiffness in humans, was measured using transcutaneous tonometry. Pressure waveforms were recorded simultaneously from the carotid and femoral arteries using two identical non-invasive pressure tonometers (SPT-301, Millar Instruments, Houston, Tex., USA). The transit distance was calculated as the distance between the carotid and femoral recording sites, after subtracting the distance between the carotid recording site and the sternal notch. PWV was calculated as the transit distance divided by the time delay between the foot of each pressure wave.

[2] = Complete blood count (clinical laboratory values at end of each intervention phase)
Procedure: (§1) Sixty subjects were consented for this study. This study was conducted in the Integrative Physiology of Aging Laboratory and the Clinical and Translational Research Center (CTRC) at the University of Colorado Boulder. All blood assays were performed at either Boulder Community Hospital or the University of Colorado Denver Anschutz Medical Campus CTRC Core Laboratory. All testing sessions were performed after an overnight fast and 24-hour abstention from exercise and alcohol consumption. All subjects refrained from all prescription medications for 24 hours and over the counter medications for 48 hours prior to all testing visits.
(§2) Clinical laboratory values were obtained from blood samples collected at the end of each intervention phase in 21 subjects. Complete blood work was not obtained in three subjects due to a failed catheterization during at least one of the testing phases.

[3] = system: endothelin-1 (ET-1); assay: Circulating endothelin-1 concentration; conditions: compared with placebo
Source text: To gain potential insight into the underlying mechanisms by which nicotinamide riboside lowers blood pressure, we assessed plasma concentrations of endothelin-1 (ET-1), a potent vasoconstrictor that is released by the vascular endothelium to regulate vascular smooth muscle tone. […] Thus, nicotinamide riboside may lower blood pressure and arterial stiffness by suppressing ET-1-mediated vasoconstriction.

[4] = system: healthy middle-aged and older adults; assay: Resting brachial artery blood pressure
Procedure: Resting brachial artery blood pressure and heart rate were measured in the seated position after 5 minutes of rest in a quiet examination room using a semi-automated blood pressure device (DYNAMAP™ XL, Johnson & Johnson, Arlington, Tex., USA). Measurements were made multiple times from the non-dominant arm, with 2 minutes of quiet rest between recordings. Repeat measurements were made until 3 blood pressure values were obtained that were within 5 mmHg of one another. These values were then averaged to determine resting systolic and diastolic blood pressure, pulse pressure, mean arterial pressure, and resting heart rate. Baseline blood pressure values were obtained using the above-described protocol on two separate testing days prior to the initiation of the first intervention arm and were averaged to determine baseline blood pressure status (i.e., normotensive vs. pre-hypertensive) for subsequent analyses.
To determine if this effect was greater in subjects with elevated baseline blood pressure, subjects were characterized as either normotensive (SBP <120 mmHg; DBP <80 mmHg) or pre-hypertensive (SBP 120-139 mmHg; DBP 80-89 mmHg) based on their average baseline blood pressure obtained on two separate days. The inventors observed a near significant interaction between treatment condition (NR vs. placebo) and blood pressure status for systolic blood pressure (FIG. 3A; P=0.07), with no effect on diastolic pressure (FIG. 3C), and […] on mean arterial pressure (FIG. 3E; P=0.08). […] Diastolic blood pressure also tended to be reduced in prehypertensive individuals; however this effect was lower in magnitude (3 mmHg reduction) and approached significance (FIG. 3D; P=0.09).

[5] = system: PBMCs; assay: NAD+ and related metabolites in PBMCs
Source text: Oral NR supplementation effectively elevated levels of NAD^+ in PBMCs by about 60% compared with placebo (mean change=6.2 pMol/mg protein) (Table 6). […] Of note, NR also elevated levels of nicotinic acid adenine dinucleotide (NAAD) nearly 5-fold above the placebo condition. […] Though not significant, we also observed an ˜1.5-fold increase in nicotinamide mononucleotide (NMN; mean change=0.72 pMol/mg protein), which may indicate the possible conversion of NR to NMN by nicotinamide riboside kinase (NRK) enzymes or further metabolism of NaM into NMN by nicotinamide phosphoribosyltransferase (NAMPT). […] Collectively, these findings indicate that chronic NR supplementation effectively stimulates NAD^+ metabolism in healthy middle-aged and older men and women.

[6] = Total lipid panel
Procedure: as §1, §2

[7] = NR condition, end of 6-week phase, mean ± SEM, 21 subjects
[8] = NR condition, end of 6-week phase, mean ± SEM, 21 subjects, *P < 0.05 vs. placebo
[9] = all subjects, NR condition compared with placebo, P<0.05
[10] = pre-hypertensive individuals, P<0.01
[11] = PBMCs, NR condition, mean ± SD, N = 21
[12] = PBMCs, NR condition, mean ± SD, N = 21, *p < 0.05
[13] = PBMCs, did not reach statistical significance
[14] = end of 6-week phase, mean ± SEM, 21 subjects

SMILES: NC(=O)c1ccc[n+]([C@@H]2O[C@H](CO)[C@@H](O)[C@H]2O)c1 [NR, nicotinamide riboside]
- PWV lowering by baseline blood pressure status ([1]; all subjects, regardless of baseline blood pressure status): lowered PWV by a similar degree in all subjects
- Large elastic artery stiffness, aortic pulse wave velocity (PWV) ([1]; following NR supplementation compared with placebo): significantly reduced
- HCT [2, 7]: 41.1 ± 0.7%
- HGB [2, 7]: 13.9 ± 0.2 g/dL
- MCH [2, 7]: 31.2 ± 0.3 pg
- MCHC [2, 7]: 33.8 ± 0.2 g/dL
- MCV [2, 7]: 92.3 ± 0.9 fL
- RBC [2, 7]: 4.5 ± 0.1 10^6/μL
- RDW [2, 7]: 13.0 ± 0.2%
- WBC [2, 7]: 4.3 ± 0.3 10^3/μL
- basophils absolute [2, 7]: 0.05 ± 0.01 10^3/μL
- eosinophils absolute [2, 7]: 0.14 ± 0.03 10^3/μL
- lymphocytes absolute [2, 7]: 1.18 ± 0.08 10^3/μL
- lymphocytes relative [2, 7]: 29.5 ± 1.7%
- monocytes absolute [2, 7]: 0.52 ± 0.08 10^3/μL
- monocytes relative [2, 7]: 10.7 ± 0.6%
- neutrophils absolute [2, 7]: 2.41 ± 0.19 10^3/μL
- neutrophils relative [2, 7]: 55.3 ± 1.4%
- platelet count [2, 7]: 206 ± 14 10^3/μL
- MPV [2, 8]: 10.7 ± 0.2* fL
- basophils relative [2, 8]: 1.3 ± 0.2* %
- eosinophils relative [2, 8]: 2.9 ± 0.5* %
- Difference between treatment conditions for hematology ([2]; NR vs placebo): No meaningful differences
- All clinical laboratory values versus normal reference range ([2]; all clinical laboratory values (Tables 3-5), NR condition): remained within the normal reference range
- Relevance of changes in mean platelet volume and relative distribution of white blood cell types ([2]; statistically significant difference between conditions, extremely low effect sizes): physiologically insignificant
- Serum ET-1 concentrations [3]: lowers serum ET-1 concentrations
- Mean arterial blood pressure ([4]; all subjects): moderately lowered
- Resting diastolic blood pressure [4, 9]: significantly reduced
- Resting systolic blood pressure [4, 9]: significantly reduced
- Pre-hypertension, hypertension, and arterial stiffness ([4]; human subjects, 500 mg twice daily, within 6 weeks or less): significant improvements
- Blood pressure ([4]; normotensive individuals): no effect
- Lowering of systolic blood pressure compared with placebo [4, 10]: 8 mmHg
- Mean (arterial) pressure [4, 10]: significant reduction
- Reduction of diastolic blood pressure ([4]; prehypertensive individuals, P=0.09): 3 mmHg
- Elevation of NAAD above the placebo condition ([5]; PBMCs): ~5 fold
- NR ([5]; PBMCs, NR condition, N = 21): <LOQ
- 2-3 cAMP [5, 11]: 0.0 ± 0.0 pMol/mg protein
- 3-5 cAMP [5, 11]: 0.0 ± 0.0 pMol/mg protein
- ADP [5, 11]: 1133.8 ± 1880.4 pMol/mg protein
- AMP [5, 11]: 770.8 ± 1884.3 pMol/mg protein
- CDP [5, 11]: 67.7 ± 113.1 pMol/mg protein
- CMP [5, 11]: 137.2 ± 366.0 pMol/mg protein
- CTP [5, 11]: 41.0 ± 68.4 pMol/mg protein
- Cytidine [5, 11]: 4.7 ± 6.6 pMol/mg protein
- FAD [5, 11]: 10.2 ± 5.9 pMol/mg protein
- GDP [5, 11]: 198.4 ± 329.0 pMol/mg protein
- GMP [5, 11]: 1010.1 ± 2114.8 pMol/mg protein
- GTP [5, 11]: 327.1 ± 119.1 pMol/mg protein
- Guanosine [5, 11]: 0.5 ± 1.5 pMol/mg protein
- NADP [5, 11]: 8.9 ± 8.7 pMol/mg protein
- NMN [5, 11]: 1.2 ± 3.3 pMol/mg protein
- NaM [5, 11]: 383.8 ± 282.7 pMol/mg protein
- UDP [5, 11]: 270.0 ± 420.7 pMol/mg protein
- UMP [5, 11]: 1113.7 ± 2374.2 pMol/mg protein
- UTP [5, 11]: 340.3 ± 150.1 pMol/mg protein
- Uridine [5, 11]: 278.3 ± 718.4 pMol/mg protein
- cCMP [5, 11]: 1.8 ± 8.4 pMol/mg protein
- cGMP [5, 11]: 0.0 ± 0.0 pMol/mg protein
- ATP [5, 12]: 2435.7 ± 1230.3* pMol/mg protein
- Adenosine [5, 12]: 14.4 ± 9.7* pMol/mg protein
- NAAD [5, 12]: 1.4 ± 2.2* pMol/mg protein
- NAD+ [5, 12]: 16.2 ± 14.1* pMol/mg protein
- ATP mean change ([5]; PBMCs, NR vs placebo): 699 pMol/mg protein
- Mean concentration of adenosine ([5]; PBMCs, NR vs placebo): increases in the mean concentration
- Mean concentration of nicotinamide (NaM) ([5]; PBMCs, NR vs placebo): elevated the mean concentration of nicotinamide (NaM), but this was not statistically significant
- Mean level of NADP+ ([5]; PBMCs, NR vs placebo): increased, but did not reach statistical significance
- NAD+ mean change ([5]; PBMCs, NR vs placebo): 6.2 pMol/mg protein
- NMN mean change ([5]; PBMCs, NR vs placebo): 0.72 pMol/mg protein
- Levels of adenosine diphosphate (ADP) [5, 13]: tended to raise
- Levels of adenosine monophosphate (AMP) [5, 13]: tended to raise
- Increase in NMN ([5]; PBMCs, not significant): ~1.5 fold
- Elevation of NAD+ levels in PBMCs compared with placebo ([5]; oral NR supplementation): about 60%
- Difference between treatment conditions for blood lipid profiles ([6]; NR vs placebo): No meaningful differences
- HDL-C [6, 14]: 60 ± 5 mg/dL
- LDL-C [6, 14]: 94 ± 5 mg/dL
- N-HDL-C [6, 14]: 111 ± 6 mg/dL
- Total cholesterol [6, 14]: 171 ± 6 mg/dL
- Triglycerides [6, 14]: 90 ± 14 mg/dL
- VLDL-C [6, 14]: 17 ± 3 mg/dL
